Literature values in patent US7193101B2, “Esters with antimicrobial, bioresistant and fungal resistant properties” (TPAT IP, priority 2004, dated 2007).

Experiments:
[1] = tested on: various strains of both gram positive and gram negative bacteria
[2] = prior art U.S. Pat. No. 5,866,511
nematodes = conditions: prior art U.S. Pat. No. 5,013,762

Compound: O=[N+]([O-])C(Br)(CO)CO [BNPD, 2-bromo-2-nitro-propane-1,3-diol]
- average minimum inhibitory concentration ([1]; average over gram positive and gram negative strains): around 25 ppm
- effective concentration against bacteria ([1]; various strains of gram positive and gram negative bacteria): 1–50 ppm
- antifungal activity (fungi): antifungal

Compound: O=[N+]([O-])CBr [bromonitromethane]
- effectiveness as a general biocide [2]: effective
- effectiveness for the treatment of nematodes in the soil (nematodes): effective
